Assay results as given in article PMC12587552, “A nitrogen-containing diphyllin derivative C156-P1 exhibited broad-spectrum antiviral activity against Flaviviridae viruses by preventing endosomal acidification” (Antimicrobial Agents and Chemotherapy, 2025).
Where two headings read alike, the source gives them in different places.

Legend:
[1] = test system: endosomal acidification in A549 cells; assay: Endosomal acidification, LysoSensor DND-189 flow cytometry; assay type: cell-based, human; conditions: A549 cells pretreated 12 h; C156-P1 100 nM or 1 µM, Baf-A1 100 nM
[2] = target: V-ATPase (Homo sapiens, UniProt Q9Y487); assay: ATPase activity assay on lysate of treated cells; assay type: cell-based; conditions: A549 cells treated 24 h; C156-P1 100 nM or 1000 nM, PHY34 100 nM, Baf-A1 100 nM; 2 µg total cell protein
[3] = test system: DENV-2
[4] = test system: DENV-2; assay: microbe, parasite or virus in culture; conditions: Dengue virus, DENV2, A549, 48 h, read-out: EC50 against DENV-2
[5] = in vitro; conditions: human
[6] = test system: other Flaviviridae viruses; conditions: cited from earlier work
[7] = test system: ATP6V0A2; assay: ATP6V0A2 mRNA level by RT-qPCR; assay type: cell-based, human; conditions: A549 cells, 100 nM, 48 h
[8] = test system: ZIKV; conditions: cited from earlier work
[9] = test system: ZIKV; design: method as in PMID 29033372, PMID 28694387; conditions: cited from earlier work
[10] = test system: DENV-2; design: method as in PMID 30125275; conditions: read-out: EC50 against DENV-2 infection; cited from earlier work

V-ATPase, sequence (Q9Y487 whole entry, looked up): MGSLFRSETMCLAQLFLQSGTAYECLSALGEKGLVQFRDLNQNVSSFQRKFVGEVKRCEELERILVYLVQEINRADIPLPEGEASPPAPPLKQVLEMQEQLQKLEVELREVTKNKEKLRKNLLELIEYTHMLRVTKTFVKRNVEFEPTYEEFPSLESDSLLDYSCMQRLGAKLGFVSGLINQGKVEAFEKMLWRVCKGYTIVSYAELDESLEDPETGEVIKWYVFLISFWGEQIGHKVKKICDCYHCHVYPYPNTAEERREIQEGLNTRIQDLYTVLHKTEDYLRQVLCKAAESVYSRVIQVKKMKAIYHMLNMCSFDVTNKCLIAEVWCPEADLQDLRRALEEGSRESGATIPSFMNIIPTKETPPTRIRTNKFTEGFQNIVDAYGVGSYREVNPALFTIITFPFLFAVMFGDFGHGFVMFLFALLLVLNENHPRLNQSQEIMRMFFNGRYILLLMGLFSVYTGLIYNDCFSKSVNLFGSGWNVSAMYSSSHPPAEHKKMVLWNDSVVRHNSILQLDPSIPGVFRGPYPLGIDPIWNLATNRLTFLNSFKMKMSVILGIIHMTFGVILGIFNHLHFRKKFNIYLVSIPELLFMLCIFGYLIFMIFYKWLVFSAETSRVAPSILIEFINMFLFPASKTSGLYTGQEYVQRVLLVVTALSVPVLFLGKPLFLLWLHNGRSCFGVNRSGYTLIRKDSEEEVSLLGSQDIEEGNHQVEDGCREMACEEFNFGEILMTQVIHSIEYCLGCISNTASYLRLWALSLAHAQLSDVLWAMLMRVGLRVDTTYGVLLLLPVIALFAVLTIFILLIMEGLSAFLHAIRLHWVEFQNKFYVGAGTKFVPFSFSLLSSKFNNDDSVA

SMILES: CO/C1=C\C(C)=C\[C@@H](C)[C@@H](O)[C@@H](C)C/C(C)=C/C=C/[C@H](OC)[C@@H]([C@@H](C)[C@@H](O)[C@H](C)[C@@]2(O)C[C@@H](O)[C@H](C)[C@@H](C(C)C)O2)OC1=O [Baf-A1, bafilomycin A1]
- Endosomal acidification (FITC intensity of LysoSensor DND-189) [1]: shifted the peak of FITC leftward
- V-ATPase activity [2]: significantly reduced V-ATPase activity

SMILES: COc1cc2c(O)c3c(c(-c4ccc5c(c4)OCO5)c2cc1OC)C(=O)OC3 [DP, diphyllin]
- SI (ratio of CC50 to EC50) ([3]; A549 cells, DENV-2): 39.98
- EC50 [4]: 401 nM
- CC50 [5]: 16000 nM

SMILES: COc1cc(N[C@H](C(=O)c2c[nH]c3ccc(OC(F)(F)F)cc23)c2ccc(Cl)cc2OC)cc(S(C)(=O)=O)c1 [JNJ-1802]
- Inhibitory effects against other Flaviviridae viruses [6]: lacks inhibitory effects

SMILES: COc1cc2c(O[C@@H]3O[C@H](CO)[C@@H]4OC(C)(C)O[C@@H]4[C@H]3O)c3c(c(-c4ccc5c(c4)OCO5)c2cc1OC)C(=O)OC3 [PHY34, reference compound]
- DENV-2 infection (NS3 protein, Western blot) ([3]; A549 cells, MOI = 2, 48 h, indicated concentrations): inhibited endosomal acidification and DENV-2 infection in a dose-dependent manner
- Endosomal acidification (FITC intensity of LysoSensor DND-189) [1]: inhibited endosomal acidification
- V-ATPase activity [2]: significantly reduced V-ATPase activity
- ATP6V0A2 mRNA expression [7]: decrease in ATP6V0A2 mRNA expression

SMILES: COc1cc2c(O[C@@H]3O[C@H](C)[C@@H](O)[C@H](O)[C@H]3O)c3c(c(-c4ccc5c(c4)OCO5)c2cc1OC)C(=O)OC3 [PTA, patentiflorin A, reference compound]
- SI (ratio of CC50 to EC50) [3]: 5.12
- EC50 [4]: 38.1 nM
- CC50 [5]: 195 nM

SMILES: CCN(CC)CCCC(C)Nc1ccnc2cc(Cl)ccc12 (centres unmarked) [chloroquine]
- Inhibitory concentrations necessary for ZIKV infection in cell culture [8]: micromolar range
- Inhibitory concentration (dose) required in mice against ZIKV [9]: 100 mg/kg

SMILES: CCN(CCO)CCCC(C)Nc1ccnc2cc(Cl)ccc12 (centres unmarked) [hydroxychloroquine]
- Inhibitory concentration (dose) required in mice against ZIKV [9]: 40 mg/kg

SMILES: O=C(Nc1ccc([N+](=O)[O-])cc1Cl)c1cc(Cl)ccc1O [niclosamide]
- EC50 [10]: ~10000 nM
